Experimental data as given in ChEMBL document CHEMBL5715954, “Silencing c-Myc translation as a therapeutic strategy through targeting PI3Kδ and CK1ε in hematological malignancies” (Blood, 2017).

What was measured:
Design in all cases: scale not given: the % may be the effect or the level left
[1] = target: Tyrosine-protein kinase Lyn (Homo sapiens) (UniProt P07948); assay: Inhibition of human LYN assessed as enzyme activity at 1 uM using poly[Glu:Tyr] (4:1) as substrate preincubated for 20 mins followed by [gamma-33P]-ATP addition and measured after 120 mins by radiometric Hot-SpotSM Kinase assay relative to control
Chain of Tyrosine-protein kinase Lyn (Homo sapiens) (P07948 2-512 limits assumed): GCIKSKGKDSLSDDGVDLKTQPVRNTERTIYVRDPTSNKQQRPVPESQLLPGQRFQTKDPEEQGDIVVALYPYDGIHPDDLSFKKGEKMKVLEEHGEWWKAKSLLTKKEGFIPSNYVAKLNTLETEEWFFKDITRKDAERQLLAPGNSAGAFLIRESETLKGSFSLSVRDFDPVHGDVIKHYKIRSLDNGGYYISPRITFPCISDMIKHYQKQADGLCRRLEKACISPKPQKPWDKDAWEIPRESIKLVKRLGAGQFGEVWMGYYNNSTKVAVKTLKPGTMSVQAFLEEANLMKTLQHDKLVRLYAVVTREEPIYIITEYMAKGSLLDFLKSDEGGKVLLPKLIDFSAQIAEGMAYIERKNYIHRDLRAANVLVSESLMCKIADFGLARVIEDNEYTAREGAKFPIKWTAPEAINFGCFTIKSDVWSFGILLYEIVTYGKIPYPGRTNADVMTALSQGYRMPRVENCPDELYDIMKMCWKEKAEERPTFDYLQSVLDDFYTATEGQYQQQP

[2] = target: T1, Mitogen-activated protein kinase kinase kinase 6 (Homo sapiens) (UniProt O95382); assay: Inhibition of human MEKK6 assessed as enzyme activity at 1 uM using myelin basic protein as substrate preincubated for 20 mins followed by [gamma-33P]-ATP addition and measured after 120 mins by radiometric Hot-SpotSM Kinase assay relative to control
T1 sequence (whole entry): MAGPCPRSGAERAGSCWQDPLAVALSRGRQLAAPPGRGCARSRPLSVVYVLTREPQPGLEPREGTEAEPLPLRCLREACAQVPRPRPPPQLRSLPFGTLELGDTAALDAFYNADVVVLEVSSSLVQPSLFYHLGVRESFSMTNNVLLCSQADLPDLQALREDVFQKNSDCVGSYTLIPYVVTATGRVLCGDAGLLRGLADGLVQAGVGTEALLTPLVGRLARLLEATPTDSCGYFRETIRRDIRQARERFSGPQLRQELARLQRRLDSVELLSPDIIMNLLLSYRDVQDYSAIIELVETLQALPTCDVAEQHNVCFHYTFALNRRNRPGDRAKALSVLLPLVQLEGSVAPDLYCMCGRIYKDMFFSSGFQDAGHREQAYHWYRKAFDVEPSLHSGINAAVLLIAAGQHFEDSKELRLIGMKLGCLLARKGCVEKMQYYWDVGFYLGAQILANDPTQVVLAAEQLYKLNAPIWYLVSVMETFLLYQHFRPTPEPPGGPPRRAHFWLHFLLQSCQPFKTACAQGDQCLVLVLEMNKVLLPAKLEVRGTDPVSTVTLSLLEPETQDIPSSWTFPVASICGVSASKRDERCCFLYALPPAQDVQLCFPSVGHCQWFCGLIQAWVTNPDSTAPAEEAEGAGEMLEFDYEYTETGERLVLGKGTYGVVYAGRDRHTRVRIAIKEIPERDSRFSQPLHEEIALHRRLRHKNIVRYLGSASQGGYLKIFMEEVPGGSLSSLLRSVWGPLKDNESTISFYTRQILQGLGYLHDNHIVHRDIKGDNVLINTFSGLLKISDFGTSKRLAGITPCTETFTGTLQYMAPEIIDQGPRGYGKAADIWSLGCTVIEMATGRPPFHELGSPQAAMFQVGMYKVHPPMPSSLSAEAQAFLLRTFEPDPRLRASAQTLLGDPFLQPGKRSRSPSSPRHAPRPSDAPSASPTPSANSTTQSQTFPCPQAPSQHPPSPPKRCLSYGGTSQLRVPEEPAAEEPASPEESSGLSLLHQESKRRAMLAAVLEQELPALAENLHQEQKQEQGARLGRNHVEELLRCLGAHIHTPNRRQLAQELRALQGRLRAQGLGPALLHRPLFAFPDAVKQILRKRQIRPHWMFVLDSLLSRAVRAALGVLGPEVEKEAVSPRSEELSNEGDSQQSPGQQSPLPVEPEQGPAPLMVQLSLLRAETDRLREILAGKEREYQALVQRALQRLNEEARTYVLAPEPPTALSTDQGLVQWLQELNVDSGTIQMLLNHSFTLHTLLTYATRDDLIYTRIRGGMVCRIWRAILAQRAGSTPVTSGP

[3] = target: Serine/threonine-protein kinase Nek6 (Homo sapiens) (UniProt Q9HC98); assay: Inhibition of human NEK6 assessed as enzyme activity at 1 uM using casein as substrate preincubated for 20 mins followed by [gamma-33P]-ATP addition and measured after 120 mins by radiometric Hot-SpotSM Kinase assay relative to control
Chain of Serine/threonine-protein kinase Nek6 (Homo sapiens) (Q9HC98 whole entry): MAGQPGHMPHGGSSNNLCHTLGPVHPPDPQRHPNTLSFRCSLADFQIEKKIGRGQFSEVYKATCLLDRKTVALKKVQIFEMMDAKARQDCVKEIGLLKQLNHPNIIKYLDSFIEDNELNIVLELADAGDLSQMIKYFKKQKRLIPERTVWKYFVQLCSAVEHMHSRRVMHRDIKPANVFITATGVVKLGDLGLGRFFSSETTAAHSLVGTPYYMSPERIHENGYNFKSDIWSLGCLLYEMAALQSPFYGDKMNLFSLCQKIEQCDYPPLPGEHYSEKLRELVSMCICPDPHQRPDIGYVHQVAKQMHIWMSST

[4] = target: Serine/threonine-protein kinase PAK 2 (Homo sapiens) (UniProt Q13177); assay: Inhibition of human PAK2 assessed as enzyme activity at 1 uM using RRRLSFAEPG as substrate preincubated for 20 mins followed by [gamma-33P]-ATP addition and measured after 120 mins by radiometric Hot-SpotSM Kinase assay relative to control
Chain of Serine/threonine-protein kinase PAK 2 (Homo sapiens) (Q13177 whole entry): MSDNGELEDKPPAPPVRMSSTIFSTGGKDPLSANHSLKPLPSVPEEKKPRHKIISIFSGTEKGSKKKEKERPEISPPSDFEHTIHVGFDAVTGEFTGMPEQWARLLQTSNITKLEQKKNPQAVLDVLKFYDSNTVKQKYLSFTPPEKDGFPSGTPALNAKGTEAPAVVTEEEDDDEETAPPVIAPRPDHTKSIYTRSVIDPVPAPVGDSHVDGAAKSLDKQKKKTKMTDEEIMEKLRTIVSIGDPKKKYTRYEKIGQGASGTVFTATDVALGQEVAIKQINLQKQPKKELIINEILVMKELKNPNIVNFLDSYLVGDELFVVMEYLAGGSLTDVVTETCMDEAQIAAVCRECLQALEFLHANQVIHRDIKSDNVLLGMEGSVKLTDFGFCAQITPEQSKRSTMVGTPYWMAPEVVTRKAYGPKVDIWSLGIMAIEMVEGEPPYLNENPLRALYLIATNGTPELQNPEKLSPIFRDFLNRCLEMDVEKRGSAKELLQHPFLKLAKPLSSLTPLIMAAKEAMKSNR

[5] = target: Ribosomal protein S6 kinase alpha-1 (Homo sapiens) (UniProt Q15418); assay: Inhibition of human RSK1 assessed as enzyme activity at 1 uM using KKLNRTLSVA as substrate preincubated for 20 mins followed by [gamma-33P]-ATP addition and measured after 120 mins by radiometric Hot-SpotSM Kinase assay relative to control
Chain of Ribosomal protein S6 kinase alpha-1 (Homo sapiens) (Q15418 whole entry): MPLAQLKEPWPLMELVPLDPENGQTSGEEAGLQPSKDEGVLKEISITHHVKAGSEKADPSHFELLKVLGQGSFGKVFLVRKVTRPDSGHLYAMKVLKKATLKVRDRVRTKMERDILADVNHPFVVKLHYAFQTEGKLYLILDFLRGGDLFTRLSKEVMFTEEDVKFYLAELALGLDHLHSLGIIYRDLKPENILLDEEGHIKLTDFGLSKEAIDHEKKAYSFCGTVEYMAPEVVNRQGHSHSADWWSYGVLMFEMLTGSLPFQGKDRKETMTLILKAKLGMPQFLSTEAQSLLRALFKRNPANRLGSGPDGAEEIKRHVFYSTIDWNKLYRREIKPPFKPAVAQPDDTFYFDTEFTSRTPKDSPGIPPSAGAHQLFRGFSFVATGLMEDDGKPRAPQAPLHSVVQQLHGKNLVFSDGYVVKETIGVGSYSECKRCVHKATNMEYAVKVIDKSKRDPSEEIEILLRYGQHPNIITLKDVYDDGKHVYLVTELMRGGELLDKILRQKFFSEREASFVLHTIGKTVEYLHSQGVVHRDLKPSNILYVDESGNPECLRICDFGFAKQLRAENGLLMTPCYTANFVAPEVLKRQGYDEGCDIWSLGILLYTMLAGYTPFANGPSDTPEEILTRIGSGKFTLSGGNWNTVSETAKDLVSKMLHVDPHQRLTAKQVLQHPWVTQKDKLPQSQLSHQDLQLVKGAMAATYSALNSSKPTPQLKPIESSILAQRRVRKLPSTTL

[6] = target: T2, Serine/threonine-protein kinase TAO1 (Homo sapiens) (UniProt Q7L7X3); assay: Inhibition of human TAOK1 assessed as enzyme activity at 1 uM using myelin basic protein as substrate preincubated for 20 mins followed by [gamma-33P]-ATP addition and measured after 120 mins by radiometric Hot-SpotSM Kinase assay relative to control
T2 sequence (whole entry): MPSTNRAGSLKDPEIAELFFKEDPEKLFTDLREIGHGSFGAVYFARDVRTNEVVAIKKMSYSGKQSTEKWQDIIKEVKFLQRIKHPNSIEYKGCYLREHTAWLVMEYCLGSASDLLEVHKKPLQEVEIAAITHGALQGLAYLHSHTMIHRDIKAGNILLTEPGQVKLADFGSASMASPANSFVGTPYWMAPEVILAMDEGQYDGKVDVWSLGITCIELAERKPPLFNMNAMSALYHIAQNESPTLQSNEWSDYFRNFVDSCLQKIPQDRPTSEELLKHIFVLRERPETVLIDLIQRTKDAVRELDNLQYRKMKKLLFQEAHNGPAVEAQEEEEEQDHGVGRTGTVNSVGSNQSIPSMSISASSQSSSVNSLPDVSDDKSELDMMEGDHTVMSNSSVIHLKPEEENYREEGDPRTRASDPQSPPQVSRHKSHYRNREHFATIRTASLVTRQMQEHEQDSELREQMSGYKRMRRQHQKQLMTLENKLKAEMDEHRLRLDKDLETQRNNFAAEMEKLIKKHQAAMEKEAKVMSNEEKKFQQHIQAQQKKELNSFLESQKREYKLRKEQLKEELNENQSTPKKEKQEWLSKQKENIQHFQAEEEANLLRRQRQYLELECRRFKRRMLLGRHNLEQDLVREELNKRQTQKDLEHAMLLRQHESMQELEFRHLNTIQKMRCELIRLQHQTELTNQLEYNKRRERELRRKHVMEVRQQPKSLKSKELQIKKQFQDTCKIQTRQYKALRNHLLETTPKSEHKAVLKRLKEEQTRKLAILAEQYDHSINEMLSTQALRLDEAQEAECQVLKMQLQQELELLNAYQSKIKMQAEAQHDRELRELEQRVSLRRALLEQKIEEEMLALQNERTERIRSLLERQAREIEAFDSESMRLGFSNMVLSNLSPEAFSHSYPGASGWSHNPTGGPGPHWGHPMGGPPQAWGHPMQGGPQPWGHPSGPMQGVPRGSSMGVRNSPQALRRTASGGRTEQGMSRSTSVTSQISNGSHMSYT

Structure (SMILES) | Activity [1] | Activity [2] | Activity [3] | Activity [4] | Activity [5] | Activity [6]
CC[C@H](Nc1ncnc2[nH]cnc12)c1nc2cccc(F)c2c(=O)n1-c1ccccc1 | 95% | 96.6% | 93.2% | 103% | 101% | 101%
C[C@H](Nc1ncnc2nc[nH]c12)c1cc2cccc(Cl)c2c(=O)n1-c1ccccc1 | 100% | 97.5% | 92.6% | 100% | 100% | 97.9%
CC(C)Oc1ccc(-c2nn([C@@H](C)c3oc4ccc(F)cc4c(=O)c3-c3cccc(F)c3)c3ncnc(N)c23)cc1F [UMBRALISIB] | 96.4% | 93.9% | 97.7% | 96.8% | 104% | 92.9%
